Results taken from the NIST ThermoML archive (doi:10.1016/j.jct.2013.10.013).

Experiment: xn = mol fraction of the nth substance listed
Conditions: 101 kPa, Liquid, Vibrating tube method

CC(C)COCCO [2-(2-methylpropoxy)ethanol] + O
mass density [kg/m3]
Conditions | x1 = 0.000617 | x1 = 0.001164 | x1 = 0.001812 | x1 = 0.00198 | x1 = 0.003969 | x1 = 0.006759 | x1 = 0.009969 | x1 = 0.01319
283.15 K | 999.515 | 999.412 | 999.296 | 999.307 | 999.013 | 998.702 | 998.438 | 998.199
288.15 K | 998.897 | 998.784 | 998.655 | 998.645 | 998.299 | 997.897 | 997.523 | 997.151
293.15 K | 998.017 | 997.888 | 997.743 | 997.724 | 997.322 | 996.836 | 996.347 | 995.851
298.15 K | 996.846 | 996.707 | 996.548 | 996.506 | 996.06 | 995.497 | 994.904 | 994.282
303.15 K | 995.459 | 995.292 | 995.136 | 995.092 | 994.592 | 993.958 | 993.254 | 992.505

CCCCOCCO [2-butoxyethan-1-ol] + O
mass density [kg/m3]
Conditions | x1 = 0.000906 | x1 = 0.001283 | x1 = 0.001685 | x1 = 0.001942 | x1 = 0.003834 | x1 = 0.006957 | x1 = 0.009993 | x1 = 0.01324
283.15 K | 999.515 | 999.44 | 999.376 | 999.379 | 999.137 | 998.855 | 998.677 | 998.516
288.15 K | 998.873 | 998.804 | 998.733 | 998.742 | 998.449 | 998.058 | 997.764 | 997.453
293.15 K | 997.98 | 997.897 | 997.814 | 997.774 | 997.436 | 996.956 | 996.553 | 996.129
298.15 K | 996.815 | 996.726 | 996.633 | 996.592 | 996.204 | 995.629 | 995.12 | 994.56
303.15 K | 995.386 | 995.295 | 995.201 | 995.143 | 994.715 | 994.053 | 993.447 | 992.75

O [water] + CC(C)COCCO
Conditions | mass density [kg/m3]
283.15 K, x2 = 0 | 999.699

O [water] + CC(C)NCCO
Conditions | mass density [kg/m3]
283.15 K, x2 = 0 | 999.699
